What all share (format): cell-based
The subject of one series is SARS-CoV2/ZG/297-20. To be noted: MOI 0.05; 120 hours observation; Compound 1 at 1-81 μM, Compound 2 at 9-81 μM; compared to uninfected and infected control cells; FIGS. 1 and 2.
Series [1] deals with Dengue virus serotype 2 (DENV-2). The series is described as follows: Antiviral testing against Dengue virus serotype 2 in Vero cells (CPE inhibition assay, immunostaining). The following applies: DENV2, Vero, read-out: half maximal effective concentration (EC50), viral replication. Here is the method: (§1) The antiviral effect of Compounds is evaluated against Dengue virus serotype 2 (DENV-2) using cytopathic effect (CPE) inhibition assay. Cytotoxic effect was assessed in parallel.
(§2) Five-fold serial dilutions of Compound 2 were prepared at a starting concentration of 50 μM and added in triplicate to 1.00E+04 Vero cells seeded in conical 96-well plates one day prior and incubated at 37° C. and 5% CO2 for one-hour. During the incubation time, viruses were thawed and inoculum prepared in infection medium. Stock and inoculum were maintained in wet ice at all time. Virus was then added to the Compound 2 dilutions/cells (1:1) and plates were incubated at 37° C. and 5% CO2 for 3-5 days.
Cells were immunostained. Then, medium was removed, cells were washed with PBS, fixed with cold 80%/20% (v/v) ethanol/methanol and incubated at −20° C. for 20 minutes. After removal of fixative the plates were air-dried, washed and stained with specific Ab #1, washed and stained with Ab #2-HRP conjugated. Then, cells were washed, 3,3′,5,5′-tetramethylbenzidine (TMB) substrate was added followed by addition of stop solution. The supernatant was transferred to a clean plate and signal read at 450 nm.

Series [2] in a line: Cytotoxic effect on Vero cells, assessed in parallel. The following applies: African green monkey, FIG. 5, read-out: half maximal cytotoxic concentration (CC50), viability of Vero cells. Here is the method:
as §1, §2

In the case of `Nc1nn2cc(F)cnc2c1C(=O)Nc1cncc(F)c1N1CCC(C(=O)N2CCN(C3COC3)CC2)CC1` [Compound 1, 2-Amino-6-fluoro-pyrazolo[1,5-a]pyrimidine-3-carboxylic acid [5′-fluoro-4-(4-oxetan-3-yl-piperazine-1-carbonyl)-3,4,5,6-tetrahydro-2H-[1,4′]bipyridinyl-3′-yl]-amide], the “confluence of Calu-3 cells infected with SARS-CoV-2” value in the series on SARS-CoV2/ZG/297-20 is “significant improvement of the confluence of the cells”.
Take `Cn1cncc1-c1c(F)cncc1NC(=O)c1c(N)nn2cc(F)cnc12` [Compound 2, 2-Amino-6-fluoro-N-[5-fluoro-4-(1-methyl-1H-imidazol-5-yl)pyridin-3-yl]pyrazolo [1,5-a]pyrimidine-3-carboxamide]: the “confluence of Calu-3 cells infected with SARS-CoV-2” value with SARS-CoV2/ZG/297-20 is listed as “significant improvement of the confluence of the cells”. In addition, in series [1], the EC50 stood at 0.46 µM. The CC50 in series [2] stood at 6.8 µM.

The values above are taken from US20230226066A1, “COMPOUNDS FOR THE TREATMENT OF VIRAL INFECTIONS” (MERCK PATENT GMBH, priority 2020, published 2023).
